Where two headings read alike, the source gives them in different places.

Test [1] concerns IRF pathway, THP1-Dual™ cells. The test is described as follows: STING reporter assay in THP1-Dual cells, IRF pathway (Lucia luciferase, QUANTI-Luc). Type of test: cell-based, human. To be noted: read-out: IRF (EC50 μM). The source says:
(§1) THP1-Dual™ cells were derived from the human THP-1 monocyte cell line by stable integration of two inducible reporter constructs. To this end, THP1-Dual™ cells allow the simultaneous study of the NF-κB pathway, by monitoring the activity of SEAP, and the IRF pathway by assessing the activity of a secreted luciferase (Lucia). Both reporter proteins are readily measurable in the cell culture supernatant when using QUANTI-Blue™, a SEAP detection reagent, and QUANTI-Luc™, a luciferase detection reagent.
(§2) THP1-Dual™ cells induce the activation of NF-κB in response to STING agonists. They also trigger the IRF pathway upon stimulation with STING agonists, such as cGAMP. Here, the THP-1-Dual cells were used to assess STING specific binders for function on the cellular level.
(§3) Serial dilutions of compounds in DMSO were added to low volume 384 well plates at 100 nl/well using an ECHO acoustic dispenser (Labcyte, model 550) to achieve final starting concentration of 100 μM in cell suspension. […] One column of the plate was reserved for treatment with cGAMP at 100 μM for 100% activation calculation and one column for no treatment (DMSO only) for baseline activation. Plates were then incubated in 37° C. incubator at 5% CO2 for 20 hours.
(§4) Plates were read on the Envision (Perkin Elmer) at 620 nm wavelength (OD620). In the luciferase assay, 5 μl of Quantiluc (Invivogen, Rep-qlc2) is added to white 384 well plates seeded with THP1 cells and read at 5 minutes on the Envision (Perkin Elmer) using a luminescence protocol (RLU). 100% activation was determined by value (RLU) of THP-1 Dual STING cells stimulated with 100 μM cGAMP (Invivogen, cat #TLRL-NACGA23-5).

Test [2] has as its system NF-κB pathway, THP1-Dual™ cells. Briefly: STING reporter assay in THP1-Dual cells, NF-κB pathway (SEAP, QUANTI-Blue). The class given is cell-based, human. To be noted: read-out: NFkB (EC50 μM).
Excerpt: as §1, §2, §3, §4

Where [3] appears, read: Homo sapiens, THP1-Dual, 20 h, THP1-Dual cells, 10% human plasma, 20 hours, Lucia luciferase, 100% activation = 100 μM cGAMP.
Setting [4] is: Homo sapiens, THP1-Dual, 20 h, THP1-Dual cells, 10% human plasma, 20 hours, SEAP, 100% activation = 100 μM cGAMP.
Setting [5] is: THP1-Dual cells, 10% human plasma, 20 hours, SEAP, 100% activation = 100 μM cGAMP.
The mark [6] stands for this setting: THP1-Dual cells, 10% human plasma, 20 hours, Lucia luciferase, 100% activation = 100 μM cGAMP.

The term EC50 denotes the concentration that produces a half-maximal response. Take `O=C(OCC(F)(F)F)c1cc(F)c(F)c2cc(CNC(=O)c3cnn4cccnc34)oc12` [EXAMPLE 226]: the concentration for a half-maximal effect (EC50) in test [1] (setting [3]) is 1.4 µM; in test [2] (setting [4]), 1.3 µM.

`CCOC(OC(=O)c1cc(F)cc2cc(CNC(=O)c3cnn4cccnc34)oc12)C(F)F` (single isomer, unassigned) [EXAMPLE 323, 1-Ethoxy-2,2-difluoroethyl 5-fluoro-2-((pyrazolo[1,5-a]pyrimidine-3-carboxamido)methyl)benzofuran-7-carboxylate]: the figures for the EC50 in test [1] (setting [3]) and in test [2] (setting [5]) were 0.75 µM and 0.7 µM, respectively.

On to `CCn1cncc(C(=O)NCc2cc3cc(Cl)cc(C(=O)OC)c3o2)c1=O` [Example 66, Methyl 5-chloro-2-((1-ethyl-6-oxo-1,6-dihydropyrimidine-5-carboxamido)methyl)benzofuran-7-carboxylate], for which the figures for the EC50 in test [1] (setting [3]) and in test [2] (setting [4]) were 28 µM and 33 µM, respectively.

With `CNc1nn2cccnc2c1C(=O)NCc1cc2cc(Cl)cc(C(=O)OC)c2o1` [Example 64, Methyl 5-chloro-2-((2-(methylamino)pyrazolo[1,5-a]pyrimidine-3-carboxamido)methyl)benzofuran-7-carboxylate], the half-maximal effective concentration (EC50) was 68 µM in test [1] (setting [3]) and more than 100 µM in test [2] (setting [4]).

With `C[Si](C)(C)CCSC(=O)c1cc(Cl)cc2cc(CNC(=O)c3cnn4cccnc34)oc12` [EXAMPLE 394], the concentration for a half-maximal effect (EC50) was more than 100 µM in test [1] (Homo sapiens, THP1-Dual, 20 h) and 11 µM in test [2] (Homo sapiens, THP1-Dual, 20 h).

As to `CC(OC(=O)c1cccc2cc(CN3CCc4ccncc4C3=O)oc12)C(F)(F)F` (single isomer, unassigned) [EXAMPLE 308, 1,1,1-Trifluoropropan-2-yl 2-((1-oxo-3,4-dihydro-2,7-naphthyridin-2(1H)-yl)methyl)benzo-furan-7-carboxylate], the values for the EC50 in test [1] (setting [6]) and in test [2] (setting [5]) were 25 µM and 30 µM, respectively.

On to `Cc1cc(C(=O)NO)c2oc(CNC(=O)c3cnn4cccnc34)c(Cl)c2c1` [EXAMPLE 407, N-((3-chloro-7-(hydroxycarbamoyl)-5-methylbenzofuran-2-yl)methyl)pyrazolo[1,5-a]pyrimidine-3-carboxamide], for which the 50% effective concentration (EC50) in test [1] (setting [3]) worked out at 30 µM; in test [2] (setting [4]) it was 37 µM.

In the case of `[2H]C([2H])([2H])OC(=O)c1cccc2cc(CN3CCc4ccncc4C3=O)oc12` [EXAMPLE 353, Methyl-D3 2-((1-oxo-3,4-dihydro-2,7-naphthyridin-2(1H)-yl)methyl)benzofuran-7-carboxylate], the EC50 was determined as 10 µM in test [1] (setting [3]) and 18 µM in test [2] (setting [4]).

As for `CCOC(=O)c1cccc2cc(CN3CCc4ccncc4C3=O)oc12` [EXAMPLE 205, Ethyl 2-((1-oxo-3,4-dihydro-2,7-naphthyridin-2(1H)-yl)methyl)benzofuran-7-carboxylate], the EC50 in test [1] (setting [3]) was determined as 9.8 µM; in test [2] (setting [4]) it was 9.9 µM.

Regarding `CC(OC(=O)c1cc(Br)cc2cc(CNC(=O)c3cnn4cccnc34)oc12)C(F)(F)F` (single isomer, unassigned) [EXAMPLE 342, 1,1,1-Trifluoropropan-2-yl 5-bromo-2-((pyrazolo[1,5-a]pyrimidine-3-carboxamido)methyl)benzofuran-7-carboxylate], the values for the EC50 in test [1] (setting [6]) and in test [2] (setting [5]) were 7.2 µM and 6 µM, respectively.

For `COC(=O)c1cc(Cl)cc2cc([C@H](C)NC(=O)c3cnn4cccnc34)oc12` [Example 79, Methyl (S)-5-chloro-2-(1-(pyrazolo[1,5-a]pyrimidine-3-carboxamido)ethyl)benzofuran-7-carboxylate], the results for the EC50 in test [1] (setting [3]) and in test [2] (setting [4]) were 1.5 µM and 1.7 µM, respectively.

As for `COC(=O)c1cc(Cl)cc2c(C)c(CNC(=O)c3cnn4cccnc34)oc12` [EXAMPLE 115, Methyl 5-chloro-3-methyl-2-((pyrazolo[1,5-a]pyrimidine-3-carboxamido)methyl)benzofuran-7-carboxylate], the concentration for a half-maximal effect (EC50) in test [1] (setting [3]) was 0.6 µM; in test [2] (setting [4]) it was 0.82 µM.

For the compound `Cc1cc(C(=O)OC(C)C)c2oc(CNC(=O)c3cnn4cccnc34)cc2c1` [EXAMPLE 273, Isopropyl 5-methyl-2-((pyrazolo[1,5-a]pyrimidine-3-carboxamido)methyl)-benzofuran-7-carboxylate], the half-maximal effective concentration (EC50) was 0.7 µM in test [1] (setting [3]) and 0.75 µM in test [2] (setting [4]).

`COC(=O)c1cc(Cl)cc2cc(CNC(=O)c3cncc(OC)n3)oc12` [Example 60, Methyl 5-chloro-2-((6-methoxypyrazine-2-carboxamido)methyl) benzofuran-7-carboxylate]: the 50% effective concentration (EC50) in test [1] (setting [6]) turned out to be 7.7 µM; in test [2] (setting [5]), 8.9 µM.

`COC(=O)c1cc(C)cc2cc(CNC(=O)c3cncc4[nH]cnc34)oc12` [Example 91, Methyl 2-((3H-imidazo[4,5-c]pyridine-7-carboxamido)methyl)-5-methylbenzofuran-7-carboxylate]: the half-maximal effective concentration (EC50) in test [1] (setting [3]) is 1.2 µM; in test [2] (setting [4]), 1.5 µM.

Take `COCCOCCOC(=O)c1cc(Cl)cc2cc(CNC(=O)c3cnn4cccnc34)oc12` [EXAMPLE 258, 2-(2-Methoxyethoxy)ethyl 5-chloro-2-((pyrazolo[1,5-a]pyrimidine-3-carboxamido)methyl)benzofuran-7-carboxylate]: the EC50 in test [1] (setting [3]) worked out at 3 µM; in test [2] (setting [4]), 3.5 µM.

Turning to `Cc1cc(CC(=O)OCC(F)(F)F)c2oc(CNC(=O)c3cnn4cccnc34)cc2c1` [EXAMPLE 278, 2,2,2-Trifluoroethyl 2-(5-methyl-2-((pyrazolo[1,5-a]pyrimidine-3-carboxamido)methyl)benzofuran-7-yl)acetate], the half-maximal effective concentration (EC50) in test [1] (setting [3]) was 6.6 µM; in test [2] (setting [4]), 5.5 µM.

As to `COC(OC(=O)c1cc(C)cc2cc(CNC(=O)c3cnn4cccnc34)oc12)C(F)(F)F` (single isomer, unassigned) [EXAMPLE 343, 2,2,2-Trifluoro-1-methoxyethyl 5-methyl-2-((pyrazolo[1,5-a]pyrimidine-3-carboxamido)methyl)benzofuran-7-carboxylate], the values for the EC50 in test [1] (setting [3]) and in test [2] (setting [4]) were 0.73 µM and 0.76 µM, respectively.

As for `O=C(OCC(F)F)c1cccc2cc(CN3CCc4ccncc4C3=O)oc12` [EXAMPLE 214, 2,2-Difluoroethyl 2-((1-oxo-3,4-dihydro-2,7-naphthyridin-2(1H)-yl)methyl)benzofuran-7-carboxylate], the EC50 is 8.2 µM in test [1] (setting [3]) and 9.3 µM in test [2] (setting [4]).

In the case of `O=C(OC1CC(F)(F)C1)c1cc(F)cc2c(Cl)c(CNC(=O)c3cnn4cccnc34)oc12` [EXAMPLE 291, 3,3-Difluorocyclobutyl 3-chloro-5-fluoro-2-((pyrazolo[1,5-a]pyrimidine-3-carboxamido)methyl)benzofuran-7-carboxylate], the EC50 is 0.34 µM in test [1] (setting [3]) and 0.31 µM in test [2] (setting [4]).

On to `O=C(OCC(F)(F)C(F)F)c1cccc2cc(CN3CCc4ccncc4C3=O)oc12` [EXAMPLE 213, 2,2,3,3-Tetrafluoropropyl 2-((1-oxo-3,4-dihydro-2,7-naphthyridin-2(1H)-yl)methyl)benzofuran-7-carboxylate], for which the 50% effective concentration (EC50) was 79 µM in test [1] (setting [3]) and 86 µM in test [2] (setting [4]).

As to `CC(OC(=O)c1cc(F)cc2cc(CNC(=O)c3cnn4cccnc34)oc12)C(F)(F)F` (single isomer, unassigned) [EXAMPLE 317, 1,1,1-Trifluoropropan-2-yl 5-fluoro-2-((pyrazolo[1,5-a]pyrimidine-3-carboxamido)methyl)benzofuran-7-carboxylate], the values for the 50% effective concentration (EC50) in test [1] (setting [6]) and in test [2] (setting [5]) were 1.4 µM and 1.3 µM, respectively.

Regarding `COC(=O)c1cccc2cc(CN3Cc4ccnc(F)c4C3=O)oc12` [EXAMPLE 4, Methyl 2-((4-fluoro-3-oxo-1,3-dihydro-2H-pyrrolo[3,4-c]pyridin-2-yl)methyl)benzofuran-7-carboxylate], the concentration for a half-maximal effect (EC50) is 13 µM in test [1] (setting [3]) and 14 µM in test [2] (setting [4]).

Consider `C[C@H](NC(=O)c1cnn2cccnc12)c1cc2cc(Cl)cc(C(=O)OCC(F)(F)F)c2o1` [EXAMPLE 266, 2,2,2-Trifluoroethyl (S)-5-chloro-2-(1-(pyrazolo[1,5-a]pyrimidine-3-carboxamido)ethyl)benzofuran-7-carboxylate], for which the values for the EC50 in test [1] (setting [3]) and in test [2] (setting [4]) were 3.1 µM and 2.6 µM, respectively.

Take `COc1cc(C(=O)OC(C)C(F)(F)F)c2oc(CNC(=O)c3cnn4cccnc34)cc2c1` (single isomer, unassigned) [EXAMPLE 346, 1,1,1-Trifluoropropan-2-yl 5-methoxy-2-((pyrazolo[1,5-a]pyrimidine-3-carboxamido)methyl)benzofuran-7-carboxylate]: the EC50 in test [1] (setting [6]) turned out to be 3.2 µM; in test [2] (setting [5]), 2.3 µM.

(Values after patent publication US12673954B2 (BRISTOL-MYERS SQUIBB COMPANY, priority 2021, dated 2026).)
